Measured values reported in patent US9593122B2, “Substituted pyrazolylpyrazole derivative and use of same as herbicide” (KYOYU AGRI CO., LTD., priority 2013, dated 2017).

Assays:
[1] = tested on: Echinochloa crus-galli; experiment: Paddy herbicidal activity test; assay type: in vivo; conditions: irrigated paddy pot, treated at 3.5 leaf stage of Echinochloa crus-galli, 30 days
In short: (§1)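 Flooded paddy-soil pots (3 cm water) were sown with Echinochloa, Monochoria and Scirpus, and rice at the 2.0-leaf stage was transplanted. Diluted wettable powder was dripped in per are at weed 3.5-leaf stage. After 30 days in a greenhouse (~30 °C), growth inhibition versus untreated plants was scored on an 11-level scale.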

[2] = tested on: Monochoria vaginalis; experiment: Paddy herbicidal activity test; assay type: in vivo; conditions: irrigated paddy pot, 30 days
In short: as §1

[3] = tested on: Scirpus juncoides; experiment: Paddy herbicidal activity test; assay type: in vivo; conditions: irrigated paddy pot, 30 days
In short: as §1

[4] = tested on: Rice plants; experiment: Paddy herbicidal activity test, phytotoxicity to transplanted rice; assay type: in vivo; conditions: rice transplanted at 2.0 leaf stage, 30 days
Procedure: Rice paddy soil was filled into a 1/10000 are pot followed by the addition of suitable amounts of water and chemical fertilizer, kneading, seeding with Echinochloa crus-galli, Monochoria vaginalis and Scirpus juncoides and maintaining in an irrigated state at a water depth of 3 cm.
Wettable powder of Target Compound (I) shown in Table 1 prepared in compliance with the preparation examples were diluted with a suitable amount of water, rice plants in the 2.0 leaf stage were transplanted during 3.5 leaf stage of Echinochloa crus-galli, and treated by dropping in chemical in the prescribed amount per are using a pipette.
(§2) After treating for 30 days in a glass greenhouse at an average atmospheric temperature of 30° C., the herbicidal efficacy thereof was investigated.
Evaluation of herbicidal efficacy was carried out by comparing growth inhibition rate (%) with an untreated group, while evaluation of phytotoxicity was carried out by comparing growth inhibition rate (%) with the state of a complete eradication group, and were evaluated at 11 levels indicated below.

[5] = tested on: Amaranthus retroflexus; experiment: Farming soil treatment test; assay type: in vivo; conditions: soil surface spray prior to weed growth, 30 days
Procedure: (§3) Field soil was filled into a 1/6000 are pot followed by seeding with Digitaria ciliaris, Chenopodium album and Amaranthus retroflexus and covering with soil.
(§4) Wettable powder of compounds of formula (I) shown in Table 1 prepared in compliance with the preparation examples were diluted with water to the prescribed amount of chemical and uniformly sprayed onto each soil surface layer using 10 liters of sprayed water per are prior to weed growth following seeding.
as §2
(§5) Evaluation of herbicidal efficacy is carried out in the same manner as the above-mentioned Test Example 1.

[6] = tested on: Chenopodium album; experiment: Farming soil treatment test; assay type: in vivo; conditions: soil surface spray prior to weed growth, 30 days
Procedure: as §3, §4, §2, §5

[7] = tested on: Digitaria ciliaris; experiment: Farming soil treatment test; assay type: in vivo; conditions: soil surface spray prior to weed growth, 30 days
Procedure: as §3, §4, §2, §5

[8] = tested on: Amaranthus retroflexus; experiment: Weed foliar treatment test; assay type: in vivo; conditions: foliar spray, 3 weeks
Procedure: (§6) Soil was filled into a 1/6000 are pot followed by seeding with Digitaria ciliaris, Chenopodium album and Amaranthus retroflexus, covering with soil, and cultivating in a glass greenhouse at an average atmospheric temperature of 25° C.
(§7) Wettable powder of Target Compound (I) shown in Table 1 prepared in compliance with the preparation examples were diluted with water to the prescribed amount of chemical and uniformly sprayed onto the weeds using 15 liters of sprayed water per are when Digitaria ciliaris had grown to the 1.0 to 2.0 leaf stage.
(§8) After treating for 3 weeks in a glass greenhouse at an average atmospheric temperature of 25° C., the herbicidal efficacy thereof was investigated.
(§9) Evaluation of herbicidal efficacy was carried out in the same manner as the above-mentioned Test Example 1.

[9] = tested on: Chenopodium album; experiment: Weed foliar treatment test; assay type: in vivo; conditions: foliar spray, 3 weeks
Procedure: as §6, §7, §8, §9

[10] = tested on: Digitaria ciliaris; experiment: Weed foliar treatment test; assay type: in vivo; conditions: foliar spray at 1.0 to 2.0 leaf stage of Digitaria ciliaris, 3 weeks
Procedure: as §6, §7, §8, §9

Compound | Echinochloa crus-galli herbicidal efficacy (growth inhibition level) ([1]; 1g a.i./10a) | Echinochloa crus-galli herbicidal efficacy (growth inhibition level) ([1]; 5g a.i./10a) | Monochoria vaginalis herbicidal efficacy (growth inhibition level) ([2]; 1g a.i./10a) | Monochoria vaginalis herbicidal efficacy (growth inhibition level) ([2]; 5g a.i./10a) | Scirpus juncoides herbicidal efficacy (growth inhibition level) ([3]; 1g a.i./10a) | Scirpus juncoides herbicidal efficacy (growth inhibition level) ([3]; 5g a.i./10a) | Rice plants phytotoxicity (growth inhibition level) ([4]; 1g a.i./10a) | Rice plants phytotoxicity (growth inhibition level) ([4]; 5g a.i./10a) | melting point [°C] | Amaranthus retroflexus herbicidal efficacy (growth inhibition level) ([5]; 5g a.i./10a) | Amaranthus retroflexus herbicidal efficacy (growth inhibition level) ([5]; 10g a.i./10a) | Chenopodium album herbicidal efficacy (growth inhibition level) ([6]; 5g a.i./10a) | Chenopodium album herbicidal efficacy (growth inhibition level) ([6]; 10g a.i./10a) | Digitaria ciliaris herbicidal efficacy (growth inhibition level) ([7]; 5g a.i./10a) | Digitaria ciliaris herbicidal efficacy (growth inhibition level) ([7]; 10g a.i./10a) | Amaranthus retroflexus herbicidal efficacy (growth inhibition level) ([8]; 5g a.i./10a) | Amaranthus retroflexus herbicidal efficacy (growth inhibition level) ([8]; 10g a.i./10a) | Chenopodium album herbicidal efficacy (growth inhibition level) ([9]; 5g a.i./10a) | Chenopodium album herbicidal efficacy (growth inhibition level) ([9]; 10g a.i./10a) | Digitaria ciliaris herbicidal efficacy (growth inhibition level) ([10]; 5g a.i./10a) | further results
C=C(C)CNc1c(C#N)cnn1-c1nn2c(c1Cl)CCCC2 [Compound 1, 1-(3-chloro-4,5,6,7-tetrahydropyrazolo[1,5-a]pyridin-2-yl)-5-(2-methylprop-2-enylamino)pyrazole-4-carbonitrile] | 8 (8: 80% to less than 90%) | 9 (9: 90% to less than 100%) | 9 (9: 90% to less than 100%) | 9 (9: 90% to less than 100%) | 7 (7: 70% to less than 80%) | 8 (8: 80% to less than 90%) | 0 (0 (exponent): 0% to less than 10% (growth inhibition rate)) | 0 (0 (exponent): 0% to less than 10% (growth inhibition rate)) | 97 to 98 | – | – | – | – | – | – | – | – | – | – | – | –
C=C(Cl)CNc1c(C#N)cnn1-c1nn2c(c1Cl)CCCC2 [Compound 2, 1-(3-chloro-4,5,6,7-tetrahydropyrazolo[1,5-a]pyridin-2-yl)-5-(2-chloroprop-2-enylamino)pyrazole-4-carbonitrile] | 9 (9: 90% to less than 100%) | 9 (9: 90% to less than 100%) | 9 (9: 90% to less than 100%) | 9 (9: 90% to less than 100%) | 7 (7: 70% to less than 80%) | 8 (8: 80% to less than 90%) | 0 (0 (exponent): 0% to less than 10% (growth inhibition rate)) | 0 (0 (exponent): 0% to less than 10% (growth inhibition rate)) | 123 to 124 | – | – | – | – | – | – | – | – | – | – | – | –
C#CCNc1c(C#N)cnn1-c1nn2c(c1Cl)CCCC2 [Control agent 4.85, 4.156, reference compound] | 2 (2: 20% to less than 30%) | 3 (3: 30% to less than 40%) | 1 (1: 10% to less than 20%) | 3 (3: 30% to less than 40%) | 0 (0 (exponent): 0% to less than 10% (growth inhibition rate)) | 1 (1: 10% to less than 20%) | 2 (2: 20% to less than 30%) | 2 (2: 20% to less than 30%) | – | 3 (3: 30% to less than 40%) | 6 (6: 60% to less than 70%) | 4 (4: 40% to less than 50%) | 5 (5: 50% to less than 60%) | 3 (3: 30% to less than 40%) | 4 (4: 40% to less than 50%) | 4 (4: 40% to less than 50%) | 6 (6: 60% to less than 70%) | 5 (5: 50% to less than 60%) | 6 (6: 60% to less than 70%) | 3 (3: 30% to less than 40%) | Digitaria ciliaris herbicidal efficacy (growth inhibition level) ([10]; 10g a.i./10a): 5 (5: 50% to less than 60%)
C#CCN(C(=O)C(F)(F)F)c1c(C#N)cnn1-c1nn2c(c1Cl)CCCC2 [Control agent 4.239, reference compound] | 3 (3: 30% to less than 40%) | 5 (5: 50% to less than 60%) | 1 (1: 10% to less than 20%) | 2 (2: 20% to less than 30%) | 0 (0 (exponent): 0% to less than 10% (growth inhibition rate)) | 1 (1: 10% to less than 20%) | 0 (0 (exponent): 0% to less than 10% (growth inhibition rate)) | 1 (1: 10% to less than 20%) | – | 3 (3: 30% to less than 40%) | 5 (5: 50% to less than 60%) | 2 (2: 20% to less than 30%) | 3 (3: 30% to less than 40%) | 4 (4: 40% to less than 50%) | 5 (5: 50% to less than 60%) | 4 (4: 40% to less than 50%) | 6 (6: 60% to less than 70%) | 3 (3: 30% to less than 40%) | 4 (4: 40% to less than 50%) | 3 (3: 30% to less than 40%) | Digitaria ciliaris herbicidal efficacy (growth inhibition level) ([10]; 10g a.i./10a): 5 (5: 50% to less than 60%)
